Values of other authors, collected in patent US9603803B2, “Process for preparing spray dried formulations of 4-[[6-amino-5-bromo-2-[(4-cyanophenyl)amino]-4-pyrimidinyl]oxy]-3,5-dimethylbenzonitrile” (JANSSEN SCIENCES IRELAND UC, priority 2006, dated 2017).

SMILES: Cc1cc(C#N)cc(C)c1Oc1nc(Nc2ccc(C#N)cc2)nc(N)c1Br [TMC125, 4-[[6-amino-5-bromo-2-[(4-cyanophenyl)amino]-4-pyrimidinyl]oxy]-3,5-dimethylbenzonitrile]
- activity against many mutated variants (many mutated variants): pronounced activity
- water-solubility: poor
- activity against wild type HIV (wild type HIV): pronounced activity
